Experimental data taken from patent publication US9266872B2, “2-hydroxyarylamide derivative or pharmaceutically acceptable salt thereof, preparation method thereof, and pharmaceutical composition for preventing or treating cancer containing same as active ingredient” (KOREA RESEARCH INSTITUTE OF BIOSCIENCE AND BIOTECHNOLOGY, priority 2011, dated 2016).
Like-named read-outs stand apart in the source and are kept apart here.

Columns and labels:
TMPRSS4 serine protease = target: T1, TMPRSS4 serine protease (Homo sapiens, UniProt Q9NRS4); test: Inhibitory effect on TMPRSS4 serine protease activity using peptide substrate; format: biochemical; settings: kallikrein peptide substrate 100 μM, DMSO negative control; for Intracellular protease activity Inhibition % 10 uM / inhibition at 10 µM: 10 uM compound; for inhibition at 10 µM: read-out: Intracellular protease activity Inhibition % 10 uM; for inhibition at 30 µM / Intracellular protease activity Inhibition % 30 uM: 30 uM compound; for inhibition at 30 µM: read-out: Intracellular protease activity Inhibition % 30 uM; for inhibition at 100 µM: 100 uM compound, read-out: Intracellular protease activity Inhibition % 100 uM
T1 construct: TMPRSS4 serine protease domain (205th Val˜437th Leu) was cloned in pET21b/NdeI-XhoI; inferred from pET21b XhoI cloning and Ni-NTA purification) (C); made in house; host or cells: E. coli BL21 (DE3)
T1 sequence (Q9NRS4 205-437): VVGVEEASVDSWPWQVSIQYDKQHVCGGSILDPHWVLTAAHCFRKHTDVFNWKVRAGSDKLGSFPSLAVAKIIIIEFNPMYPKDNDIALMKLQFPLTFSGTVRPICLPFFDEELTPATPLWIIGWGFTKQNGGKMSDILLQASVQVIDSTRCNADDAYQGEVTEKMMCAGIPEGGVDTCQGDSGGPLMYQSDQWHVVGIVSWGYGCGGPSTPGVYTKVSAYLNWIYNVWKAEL
Protocol: TMPRSS4 serine protease domain (205th Val˜437th Leu) was cloned in pET21b/NdeI-XhoI, which was introduced in E. coli BL21 (DE3). At this time, FlagX2-enterokinase cleavage site ([…]; total 15 amino acids) was inserted in N-terminal of TMPRSS4 serine protease domain as shown in FIG. 1. The forward and reverse primers for PCR used for the cloning were presented by SEQ. ID. NO: 1 and NO: 2.
The cells were cultured in 10 ml of LB containing ampicillin at 37° C. overnight. IL of LB+ampicillin was added thereto, followed by further culture until OD reached 0.6˜0.8. 0.1 mM IPTG was added thereto, followed by further culture for 16 hours. Cell pellet was obtained, purified by Ni-NTA (Qiagen), and dialyzed. TMPRSS4 serine protease (pro-form) labeled with 2 mg of 2Xflag-enterokinase cleavage site was conjugated to Ni-NTA resin (4°, overnight). Enterokinase (NEB) was treated thereto at the concentration of 0.0002%/w/w at room temperature for 5 hours. The sample was washed, eluted with 50 mM imidazole in 20 mM of sodium phosphate buffer, and then dialyzed.
The protein activity was evaluated by measuring fluorescence shown during hydrolysis of the peptide. […] Reaction was induced after adding 100 μM of the peptide substrate into reaction buffer (50 mM Tris-HCl (pH 8.0), 10 mM CaCl2, 1 μM ZnCl2). Then, fluorescence was measured at 5 minutes interval (excitation 385 nm, emission 455 nm).
Then, fluorescence (excitation 385 nm/emission 455 nm) was measured at 5 minutes interval for 150 minutes. […] Dimethylsulfoxide (DMSO) was used as the negative control.

[1] = tested on: TMPRSS4 over-expressing colorectal cancer cell line SW480; test: Inhibitory effect on infiltration of cancer cells over-expressing TMPRSS4 (matrigel trans-well); format: cell-based; settings: Homo sapiens, read-out: Inhibition rate of target-expressing colorectal cancer cell activity (%, 0.1~2 uM)
Protocol: The cells were distributed in a 6-well plate at the density of 3×10^5 cells/well, followed by transfection. 48 hours later, the medium was replaced with a selection medium (800 μg/ml G418 medium). G418-resistant clone was separated, followed by culture for 2 weeks, during which selection was performed.
The cancer cell line constructed in step 1 was distributed in a 24-well trans-well plate (8 μm pore size; Costar, USA) whose porous membrane was coated with 100 μl of matrigel (BD Biosciences, USA) diluted with serum-free medium at the concentration of 250 μg/ml, which stood at room temperature for 1 hour for solidification. Lower chamber of the trans-well plate was coated with 100 μl of collagen type I (Sigma) at the concentration of 20 μg/ml. […] While culturing the cells in a 37, 5% CO2 incubator for 48 hours, cell migration from the upper chamber to lower chamber was allowed. […] The excessive crystal violet solution was washed away with distilled water. The migrated cell number was counted from 5 randomly selected areas (×200). The experiment was repeated at least twice under the same condition, and the representative result was presented.
The inhibitory effect of each compound on the infiltration of TMPRSS4 over-expressing colorectal cancer cell line SW480 was calculated by Mathematical Formula 1, which presents the number of infiltrated cells with % by the number of infiltrated cells in the negative control treated with DMSO. Infiltration Inhibition Rate (%)=100−Infiltrated cell number with the treatment of each compound/Infiltrated cell number with the treatment of DMSO×100 [Mathematical Formula 1]

[2] = 0.8 uM, SW480 over-expressing TMPRSS4, 48 hours
[3] = SW480 over-expressing TMPRSS4, 48 hours
[4] = 2 uM, SW480 over-expressing TMPRSS4, 48 hours

Intracellular protease activity Inhibition % 10 uM (TMPRSS4 serine protease)	inhibition at 10 µM (TMPRSS4 serine protease)	inhibition at 30 µM (TMPRSS4 serine protease)	inhibition at 100 µM (TMPRSS4 serine protease)	Compound	also measured
67%	51 to 100%	88%	99%	COc1cc(NC(=O)c2cc(Cl)ccc2O)cc(C(F)(F)F)c1 [Example 6, 5-chloro-2-hydroxy-N-(3-methoxy-5-(trifluoromethyl)phenyl)benzamide]	inhibition at 0.8 µM [1, 2]: 49%
58%	51 to 100%	96%	–	O=C(Nc1cc(C(F)(F)F)cc(C(F)(F)F)c1)c1cc2ccccc2cc1O [Example 8, N-(3,5-bis(trifluoromethyl)phenyl)-2-hydroxy-3-naphthaamide]	inhibition at 0.8 µM [1, 2]: 72%
64%	51 to 100%	100%	100%	O=C(Nc1cc(Br)cc(C(F)(F)F)c1)c1cc(Cl)ccc1O [Example 22, N-(3-bromo-5-(trifluoromethyl)phenyl)-5-chloro-2-hydroxybenzamide]	inhibition at 0.1 µM [1, 3]: 43%
–	–	8%	75%	O=C(Nc1cnc2ccccc2c1)c1cc(Cl)ccc1O [Example 25, 5-chloro-2-hydroxy-N-quinoline-3-yl-benzamide]	inhibition at 25 µM ([1]; 25 uM, SW480 over-expressing TMPRSS4, 48 hours): 51%
–	–	92%	100%	N#Cc1ccc(NC(=O)c2cc(Cl)ccc2O)c(Cl)c1 [Example 27, 5-chloro-N-(2-chloro-4-cyano-phenyl)-2-hydroxy-benzamide]	inhibition at 2 µM [1, 4]: 54%
–	–	75%	100%	O=C(Nc1nnc(C(F)(F)F)s1)c1cc(Cl)ccc1O [Example 28, 5-chloro-2-hydroxy-N-(5-trifluoromethyl-[1,3,4]thiadiazole-2-yl)-benzamide]	inhibition at 2 µM [1, 4]: 52%
71%	51 to 100%	95%	99%	O=C(Nc1ccc(Cl)c(C(F)(F)F)c1)c1cc(Cl)ccc1O [Example 32, 5-chloro-N-(4-chloro-3-(trifluoromethyl)phenyl)-2-hydroxybenzamide]	inhibition at 0.8 µM [1, 2]: 68%
51%	51 to 100%	94%	–	Cc1c(C(F)(F)F)cc(NC(=O)c2cc(Cl)ccc2O)cc1C(F)(F)F [Example 33, 5-chloro-2-hydroxy-N-(4-methyl-3,5-bis(trifluoromethyl)phenyl)benzamide]	inhibition at 0.1 µM [1, 3]: 43%
53%	51 to 100%	–	–	O=C(Nc1ccc(C(F)(F)F)cc1[N+](=O)[O-])c1cc(Cl)ccc1O [Example 36, 5-chloro-2-hydroxy-N-(2-nitro-4-trifluoromethyl-phenyl)-benzamide]	inhibition at 0.8 µM [1, 2]: 76%
–	26%	47 to 100%	–	N#Cc1ccc(NC(=O)c2cc(Cl)ccc2O)nc1 [Example 37, 5-chloro-N-(5-cyano-pyridine-2-yl)-2-hydroxy-benzamide]	Intracellular protease activity Inhibition % 30 uM (TMPRSS4 serine protease): 63%; inhibition at 5 µM ([1]; 5 uM, SW480 over-expressing TMPRSS4, 48 hours): 44%
–	–	91%	98%	O=C(Nc1nc(-c2ccccc2)cs1)c1cc(Cl)ccc1O [Example 53, 5-chloro-2-hydroxy-N-(4-phenylthiazole-2-yl)benzamide]	inhibition at 0.1 µM [1, 3]: 34%; inhibition at 1 µM ([1]; 1 uM, SW480 over-expressing TMPRSS4, 48 hours): 56%
–	33%	78%	–	O=C(Nc1cc(C(F)(F)F)cc(C(F)(F)F)c1)c1cc([N+](=O)[O-])ccc1O [Example 55, N-(3,5-bis(trifluoromethyl)phenyl)-2-hydroxy-5-nitrobenzamide]	inhibition at 0.1 µM [1, 3]: 26%
58%	51 to 100%	–	–	O=C(Nc1cc(C(F)(F)F)c(Br)c(C(F)(F)F)c1)c1cc(Cl)ccc1O [Example 65, N-(4-bromo-3,5-bis(trifluoromethyl)phenyl)-5-chloro-2-hydroxybenzamide]	Intracellular protease activity Inhibition % 30 uM (TMPRSS4 serine protease): 85%; inhibition at 0.1 µM [1, 3]: 53%
–	17%	–	–	O=C(NC1=NCCS1)c1cc(Cl)ccc1O [Example 69, 5-chloro-N-(4,5-dihydrothiazol-2-yl)-2-hydroxybenzamide]	–
77%	–	–	–	O=C(Nc1nc2c(s1)CCCC2)c1cc(Cl)ccc1O [Example 70, 5-chloro-2-hydroxy-N-(4,5,6,7-tetrahydrobenzo[d]thiazol-2-yl)benzamide]	–
66%	51 to 100%	–	–	Cc1cnc(NC(=O)c2cc(Cl)ccc2O)s1 [Example 71, 5-chloro-2-hydroxy-N-(5-methylthiazole-2-yl)benzamide]	–
–	16%	–	–	Cc1nc(NC(=O)c2cc(Cl)ccc2O)sc1C [Example 72, 5-chloro-N-(4,5-dimethylthiazol-2-yl)-2-hydroxybenzamide]	–
85%	–	–	–	CC1CN(Cc2csc(NC(=O)c3cc(Cl)ccc3O)n2)CC(C)O1 (centres unmarked) [Example 73, 5-chloro-N-(4-((2,6-dimethylmorpholino)methyl)thiazol-2-yl)-2-hydroxybenzamide]	–
–	14%	–	–	Cn1ccc(NC(=O)c2cc(Cl)ccc2O)n1 [Example 74, 5-chloro-2-hydroxy-N-(1-methyl-1H-pyrazol-3-yl)benzamide]	–
58%	51 to 100%	–	–	Cc1nc(NC(=O)c2cc(Cl)ccc2O)n[nH]1 [Example 75, 5-chloro-2-hydroxy-N-(5-methyl-1H-1,2,4-triazol-3-yl)benzamide]	–
–	30%	–	–	O=C(Nc1nc(-c2cccnc2)cs1)c1cc(Cl)ccc1O [Example 76, 5-chloro-2-hydroxy-N-(4-(pyridin-3-yl)thiazol-2-yl)benzamide]	–

Compound	Intracellular protease activity Inhibition % 10 uM (TMPRSS4 serine protease)	inhibition at 10 µM (TMPRSS4 serine protease)	inhibition at 30 µM (TMPRSS4 serine protease)	inhibition at 100 µM (TMPRSS4 serine protease)	also measured
O=C(Nc1cc(C(F)(F)F)cc(C(F)(F)F)c1)c1cc(Cl)ccc1O [Example 1, N-(3,5-bis(trifluoromethyl)phenyl)-5-chloro-2-hydroxybenzamide]	64%	51 to 100%	96%	100%	inhibition at 0.8 µM ([1]; SW480, 48 h): 76%
N#Cc1ccc(NC(=O)c2cc(Cl)ccc2O)cc1C(F)(F)F [Example 19, 5-chloro-N-(4-cyano-3-(trifluoromethyl)phenyl)-2-hydroxybenzamide]	–	–	88%	100%	inhibition at 2 µM ([1]; SW480, 48 h): 81%
